According to the supplement of paper PMC10307832:

Columns and labels:
Test in all cases: relative viability (nuclei count vs DMSO), 5 days (fraction); higher = more cells survive
Motesanib = compound: CC1(C)CNc2cc(NC(=O)c3cccnc3NCc3ccncc3)ccc21 [Motesanib]
Summary of the method: (§1)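 Five library-drug doses spaced by √10 were pinned onto vehicle-anchored 1536-well plates of lung cancer cell lines that had been kept overnight at 37 °C. Cells went 5 days without medium change, then were fixed, permeabilised and Hoechst-stained together, imaged at 4× and counted by MetaXpress. Viability is the ratio of treated-well to vehicle-well nuclei, taken as a median over plates. Plates required control CV below 25% and at least one doubling.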

[1] = compound: C[C@@]1(C(=O)Nc2ccc(F)nc2)CCCN1c1nc(Nc2cc(C3CC3)n[nH]2)c2cccn2n1
Summary of the method: as §1

Motesanib + Luminespib = compound: CC1(C)CNc2cc(NC(=O)c3cccnc3NCc3ccncc3)ccc21 [Motesanib] + CCNC(=O)c1noc(-c2cc(C(C)C)c(O)cc2O)c1-c1ccc(CN2CCOCC2)cc1 [Luminespib] (partner 0.01 µM)
Summary of the method: (§2)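 Lung cancer cell lines were seeded in 1536-well plates and dosed by pin tool the next day, with either a single drug or a fixed anchor-drug dose combined with five library-drug doses (not always all listed) spaced in √10 steps. Five days later, one step fixed the cells and stained their nuclei (final 0.05% Triton X-100, 1% formaldehyde, 1 ug/ml Hoechst), and nuclei were counted on 4× images. Relative viability is the nuclei count in treated wells divided by the count in vehicle wells, and each value is the median of duplicate plates.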

Motesanib + Foretinib = compound: CC1(C)CNc2cc(NC(=O)c3cccnc3NCc3ccncc3)ccc21 [Motesanib] + COc1cc2c(Oc3ccc(NC(=O)C4(C(=O)Nc5ccc(F)cc5)CC4)cc3F)ccnc2cc1OCCCN1CCOCC1 [Foretinib] (partner 0.25 µM)
Summary of the method: as §2

Motesanib + OSI-027 = compound: CC1(C)CNc2cc(NC(=O)c3cccnc3NCc3ccncc3)ccc21 [Motesanib] + COc1cccc2cc(-c3nc([C@H]4CC[C@H](C(=O)O)CC4)n4ncnc(N)c34)[nH]c12 [OSI-027] (partner 0.5 µM)
Summary of the method: as §2

Motesanib + Tozasertib = compound: CC1(C)CNc2cc(NC(=O)c3cccnc3NCc3ccncc3)ccc21 [Motesanib] + Cc1cc(Nc2cc(N3CCN(C)CC3)nc(Sc3ccc(NC(=O)C4CC4)cc3)n2)n[nH]1 [Tozasertib] (partner 0.1 µM)
Summary of the method: as §2

Motesanib + Dasatinib = compound: CC1(C)CNc2cc(NC(=O)c3cccnc3NCc3ccncc3)ccc21 [Motesanib] + Cc1nc(Nc2ncc(C(=O)Nc3c(C)cccc3Cl)s2)cc(N2CCN(CCO)CC2)n1 [Dasatinib] (partner 0.075 µM)
Summary of the method: as §2

Motesanib + Phenformin = compound: CC1(C)CNc2cc(NC(=O)c3cccnc3NCc3ccncc3)ccc21 [Motesanib] + N=C(N)NC(=N)NCCc1ccccc1 [Phenformin] (partner 250 µM)
Summary of the method: as §2

[2] = compound: C[C@@]1(C(=O)Nc2ccc(F)nc2)CCCN1c1nc(Nc2cc(C3CC3)n[nH]2)c2cccn2n1 + CCNC(=O)c1noc(-c2cc(C(C)C)c(O)cc2O)c1-c1ccc(CN2CCOCC2)cc1 [Luminespib] (partner 0.01 µM)
Summary of the method: as §2

[3] = compound: C[C@@]1(C(=O)Nc2ccc(F)nc2)CCCN1c1nc(Nc2cc(C3CC3)n[nH]2)c2cccn2n1 + COc1cc2c(Oc3ccc(NC(=O)C4(C(=O)Nc5ccc(F)cc5)CC4)cc3F)ccnc2cc1OCCCN1CCOCC1 [Foretinib] (partner 0.25 µM)
Summary of the method: as §2

[4] = compound: C[C@@]1(C(=O)Nc2ccc(F)nc2)CCCN1c1nc(Nc2cc(C3CC3)n[nH]2)c2cccn2n1 + COc1cccc2cc(-c3nc([C@H]4CC[C@H](C(=O)O)CC4)n4ncnc(N)c34)[nH]c12 [OSI-027] (partner 0.5 µM)
Summary of the method: as §2

[5] = compound: C[C@@]1(C(=O)Nc2ccc(F)nc2)CCCN1c1nc(Nc2cc(C3CC3)n[nH]2)c2cccn2n1 + Cc1cc(Nc2cc(N3CCN(C)CC3)nc(Sc3ccc(NC(=O)C4CC4)cc3)n2)n[nH]1 [Tozasertib] (partner 0.1 µM)
Summary of the method: as §2

[6] = compound: C[C@@]1(C(=O)Nc2ccc(F)nc2)CCCN1c1nc(Nc2cc(C3CC3)n[nH]2)c2cccn2n1 + Cc1nc(Nc2ncc(C(=O)Nc3c(C)cccc3Cl)s2)cc(N2CCN(CCO)CC2)n1 [Dasatinib] (partner 0.075 µM)
Summary of the method: as §2

[7] = compound: C[C@@]1(C(=O)Nc2ccc(F)nc2)CCCN1c1nc(Nc2cc(C3CC3)n[nH]2)c2cccn2n1 + N=C(N)NC(=N)NCCc1ccccc1 [Phenformin] (partner 250 µM)
Summary of the method: as §2

NCI-H1623
relative viability (Motesanib; 0.01 µM): 1.06 | relative viability (Motesanib; 0.03162 µM): 1.08 | relative viability (Motesanib; 0.1 µM): 0.901 | relative viability (Motesanib; 0.3162 µM): 0.964 | relative viability (Motesanib; 1 µM): 0.926 | relative viability ([1]; 0.04 µM): 0.809 | relative viability ([1]; 0.1265 µM): 0.79 | relative viability ([1]; 0.4 µM): 0.678 | relative viability ([1]; 1.265 µM): 0.622 | relative viability (Motesanib + Luminespib; first compound 0.01 µM): 0.605 | relative viability (Motesanib + Luminespib; first compound 0.03162 µM): 0.506 | relative viability (Motesanib + Luminespib; first compound 0.1 µM): 0.49 | relative viability (Motesanib + Luminespib; first compound 0.3162 µM): 0.306 | relative viability (Motesanib + Luminespib; first compound 1 µM): 0.515 | relative viability (Motesanib + Foretinib; first compound 0.01 µM): 0.869 | relative viability (Motesanib + Foretinib; first compound 0.03162 µM): 0.889 | relative viability (Motesanib + Foretinib; first compound 0.1 µM): 0.763 | relative viability (Motesanib + Foretinib; first compound 0.3162 µM): 0.871 | relative viability (Motesanib + Foretinib; first compound 1 µM): 0.873 | relative viability (Motesanib + OSI-027; first compound 0.01 µM): 0.454 | relative viability (Motesanib + OSI-027; first compound 0.03162 µM): 0.475 | relative viability (Motesanib + OSI-027; first compound 0.1 µM): 0.475 | relative viability (Motesanib + OSI-027; first compound 0.3162 µM): 0.389 | relative viability (Motesanib + OSI-027; first compound 1 µM): 0.409 | relative viability (Motesanib + Tozasertib; first compound 0.01 µM): 0.414 | relative viability (Motesanib + Tozasertib; first compound 0.03162 µM): 0.426 | relative viability (Motesanib + Tozasertib; first compound 0.1 µM): 0.457 | relative viability (Motesanib + Tozasertib; first compound 0.3162 µM): 0.425 | relative viability (Motesanib + Tozasertib; first compound 1 µM): 0.475 | relative viability (Motesanib + Dasatinib; first compound 0.01 µM): 0.481 | relative viability (Motesanib + Dasatinib; first compound 0.03162 µM): 0.567 | relative viability (Motesanib + Dasatinib; first compound 0.1 µM): 0.562 | relative viability (Motesanib + Dasatinib; first compound 0.3162 µM): 0.556 | relative viability (Motesanib + Dasatinib; first compound 1 µM): 0.538 | relative viability (Motesanib + Phenformin; first compound 0.01 µM): 0.551 | relative viability (Motesanib + Phenformin; first compound 0.03162 µM): 0.613 | relative viability (Motesanib + Phenformin; first compound 0.1 µM): 0.594 | relative viability (Motesanib + Phenformin; first compound 0.3162 µM): 0.617 | relative viability (Motesanib + Phenformin; first compound 1 µM): 0.578 | relative viability ([2]; first compound 0.04 µM): 0.47 | relative viability ([2]; first compound 0.1265 µM): 0.368 | relative viability ([2]; first compound 0.4 µM): 0.345 | relative viability ([2]; first compound 1.265 µM): 0.403 | relative viability ([3]; first compound 0.04 µM): 0.658 | relative viability ([3]; first compound 0.1265 µM): 0.82 | relative viability ([3]; first compound 0.4 µM): 0.57 | relative viability ([3]; first compound 1.265 µM): 0.672 | relative viability ([4]; first compound 0.04 µM): 0.423 | relative viability ([4]; first compound 0.1265 µM): 0.32 | relative viability ([4]; first compound 0.4 µM): 0.307 | relative viability ([4]; first compound 1.265 µM): 0.302 | relative viability ([5]; first compound 0.04 µM): 0.391 | relative viability ([5]; first compound 0.1265 µM): 0.397 | relative viability ([5]; first compound 0.4 µM): 0.349 | relative viability ([5]; first compound 1.265 µM): 0.371 | relative viability ([6]; first compound 0.04 µM): 0.465 | relative viability ([6]; first compound 0.1265 µM): 0.247 | relative viability ([6]; first compound 0.4 µM): 0.438 | relative viability ([6]; first compound 1.265 µM): 0.412 | relative viability ([7]; first compound 0.04 µM): 0.563 | relative viability ([7]; first compound 0.1265 µM): 0.462 | relative viability ([7]; first compound 0.4 µM): 0.449 | relative viability ([7]; first compound 1.265 µM): 0.477
